According to patent US9932341B2, “Use of pyrazolopyrimidine derivatives for the treatment of PI3K-delta related disorders” (Incyte Corporation, priority 2013, dated 2018):
Counter-ions that a name gives are not always drawn.

Biological target: PI3Kδ (p110δ/p85α) (Homo sapiens (Human), UniProt O00329)
Experiment: PI3Kδ Scintillation Proximity Assay (Example A3)
Format: biochemical
Conditions: 20 μM ATP, 20 μM PIP2, 4 nM PI3Kδ, read-out: PI3Kδ SPA IC50
Description: [γ-^33P]ATP (10 mCi/mL) was purchased from PerkinElmer (Waltham, Mass.). […] PI3Kδ (p110δ/p85α) was purchased from Millipore (Bedford, Mass.). ATP, MgCl2, DTT, EDTA, MOPS and CHAPS were purchased from Sigma-Aldrich (St. Louis, Mo.). Wheat Germ Agglutinin (WGA) YSi SPA Scintillation Beads was purchased from GE healthcare life sciences (Piscataway, N.J.).
The kinase reaction was conducted in polystyrene 384-well matrix white plate from Thermo Fisher Scientific in a final volume of 25 μL. Inhibitors were first diluted serially in DMSO and added to the plate wells before the addition of other reaction components. The final concentration of DMSO in the assay was 0.5%. The PI3K assays were carried out at room temperature in 20 mM MOPS, pH 6.7, 10 mM MgCl2, 5 mM DTT and CHAPS 0.03%. Reactions were initiated by the addition of ATP, the final reaction mixture consisted of 20 μM PIP2, 20 μM ATP, 0.2 μCi [γ-^33P] ATP, 4 nM PI3Kδ. […] 25 mM EDTA, 400 μM ATP. The final concentration of SPA beads was 1.0 mg/mL. After the plate sealing, plates were shaken overnight at room temperature and centrifuged at 1800 rpm for 10 minutes, the radioactivity of the product was determined by scintillation counting on Topcount (PerkinElmer). IC50 determination was performed by fitting the curve of percent control activity versus the log of the inhibitor concentration using the GraphPad Prism 3.0 software.

Chain of PI3Kδ (p110δ/p85α) (O00329 whole entry): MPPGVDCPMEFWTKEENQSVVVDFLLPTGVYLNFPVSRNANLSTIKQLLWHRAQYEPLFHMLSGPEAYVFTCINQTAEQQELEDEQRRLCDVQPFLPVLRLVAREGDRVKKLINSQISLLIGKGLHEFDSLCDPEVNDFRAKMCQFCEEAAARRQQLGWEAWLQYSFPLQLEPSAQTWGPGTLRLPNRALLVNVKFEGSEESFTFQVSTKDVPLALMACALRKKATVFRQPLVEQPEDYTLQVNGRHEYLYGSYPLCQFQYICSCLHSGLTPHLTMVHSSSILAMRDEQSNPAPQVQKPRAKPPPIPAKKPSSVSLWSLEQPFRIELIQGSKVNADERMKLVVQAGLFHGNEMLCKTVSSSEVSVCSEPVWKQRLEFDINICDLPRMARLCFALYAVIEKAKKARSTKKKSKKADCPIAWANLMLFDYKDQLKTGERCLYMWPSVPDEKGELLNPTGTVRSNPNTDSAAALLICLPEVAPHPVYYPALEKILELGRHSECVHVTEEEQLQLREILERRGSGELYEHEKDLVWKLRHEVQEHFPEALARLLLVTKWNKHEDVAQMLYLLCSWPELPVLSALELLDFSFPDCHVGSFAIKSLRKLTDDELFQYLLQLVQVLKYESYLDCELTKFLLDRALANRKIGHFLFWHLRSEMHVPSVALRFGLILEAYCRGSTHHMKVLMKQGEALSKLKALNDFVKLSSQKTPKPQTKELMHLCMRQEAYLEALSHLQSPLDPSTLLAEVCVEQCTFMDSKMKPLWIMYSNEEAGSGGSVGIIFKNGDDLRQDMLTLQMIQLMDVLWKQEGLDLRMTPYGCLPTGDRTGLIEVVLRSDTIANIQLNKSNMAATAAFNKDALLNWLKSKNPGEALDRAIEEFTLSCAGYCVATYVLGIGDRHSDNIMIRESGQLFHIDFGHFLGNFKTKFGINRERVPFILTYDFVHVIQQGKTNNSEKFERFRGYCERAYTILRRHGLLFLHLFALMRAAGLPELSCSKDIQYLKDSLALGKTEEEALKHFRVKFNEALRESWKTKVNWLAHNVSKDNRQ
Chain of PI3Kδ (p110δ/p85α) (P27986 whole entry partner): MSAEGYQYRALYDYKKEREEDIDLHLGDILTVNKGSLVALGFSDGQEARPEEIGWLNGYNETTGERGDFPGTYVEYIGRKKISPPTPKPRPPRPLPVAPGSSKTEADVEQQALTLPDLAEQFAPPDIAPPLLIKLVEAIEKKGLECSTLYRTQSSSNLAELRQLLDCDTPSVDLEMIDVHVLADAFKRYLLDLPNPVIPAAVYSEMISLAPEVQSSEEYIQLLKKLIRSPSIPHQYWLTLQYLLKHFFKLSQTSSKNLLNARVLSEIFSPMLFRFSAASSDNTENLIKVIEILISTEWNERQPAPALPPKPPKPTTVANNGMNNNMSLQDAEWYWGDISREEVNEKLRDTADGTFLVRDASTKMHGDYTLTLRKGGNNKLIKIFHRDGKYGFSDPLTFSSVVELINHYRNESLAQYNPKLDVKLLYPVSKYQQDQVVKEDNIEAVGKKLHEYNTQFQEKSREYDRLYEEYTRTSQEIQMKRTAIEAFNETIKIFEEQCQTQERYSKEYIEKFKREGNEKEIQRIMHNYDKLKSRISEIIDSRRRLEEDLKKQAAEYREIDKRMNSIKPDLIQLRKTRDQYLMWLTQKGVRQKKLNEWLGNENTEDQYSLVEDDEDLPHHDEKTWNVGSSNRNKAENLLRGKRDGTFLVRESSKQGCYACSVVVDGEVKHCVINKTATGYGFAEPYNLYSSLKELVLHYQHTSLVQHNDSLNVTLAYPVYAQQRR

Row | Structure (SMILES) | IC50 [nM]
1 | COc1c(C(C)n2nc(C)c3c(N)ncnc32)cc(Cl)c(C)c1C1CN(CCO)C1 (single isomer, unassigned) [Example 104, 2-(3-{3-[1-(4-Amino-3-methyl-1H-pyrazolo[3,4-d]pyrimidin-1-yl)ethyl]-5-chloro-2-methoxy-6-methylphenyl}azetidin-1-yl)ethanol] | < 10
2 | COc1c(C(C)n2nc(C)c3c(N)ncnc32)cc(Cl)c(C)c1C1CN(CC#N)C1 (single isomer, unassigned) [Example 105, (3-{3-[1-(4-Amino-3-methyl-1H-pyrazolo[3,4-d]pyrimidin-1-yl)ethyl]-5-chloro-2-methoxy-6-methylphenyl}azetidin-1-yl)acetonitrile] | < 10
3 | COc1c(C(C)n2nc(C)c3c(N)ncnc32)cc(Cl)c(C)c1C1CN(CC(F)(F)F)C1 (single isomer, unassigned) [Example 108, 1-(1-{5-Chloro-2-methoxy-4-methyl-3-[1-(2,2,2-trifluoroethyl)azetidin-3-yl]phenyl}ethyl)-3-methyl-1H-pyrazolo[3,4-d]pyrimidin-4-amine] | < 10
4 | COc1c(C(C)n2nc(C)c3c(N)ncnc32)cc(Cl)c(C)c1C1CN(C(=O)[C@@H](C)O)C1 (single isomer, unassigned) [Example 121, trifluoroacetate] | < 10
5 | COc1c(C(C)n2nc(C)c3c(N)ncnc32)cc(Cl)c(C)c1C1CN(CC(C)(C)O)C1 (single isomer, unassigned) [Example 158, 1-(3-{3-[1-(4-Amino-3-methyl-1H-pyrazolo[3,4-d]pyrimidin-1-yl)ethyl]-5-chloro-2-methoxy-6-methylphenyl}azetidin-1-yl)-2-methylpropan-2-ol] | < 10
6 | COc1c(C(C)n2nc(C)c3c(N)ncnc32)cc(Cl)c(C)c1C1CN(C2(CC#N)CCC2)C1 (single isomer, unassigned) [Example 161, [1-(3-{3-[1-(4-Amino-3-methyl-1H-pyrazolo[3,4-d]pyrimidin-1-yl)ethyl]-5-chloro-2-methoxy-6-methylphenyl}azetidin-1-yl)cyclobutyl]acetonitrile] | < 10
7 | COc1c(C(C)n2nc(C)c3c(N)ncnc32)cc(Cl)c(C)c1-c1cnc(N)nc1 (single isomer, unassigned) [Example 169, 1-(1-(3-(2-aminopyrimidin-5-yl)-5-chloro-2-methoxy-4-methylphenyl)ethyl)-3-methyl-1H-pyrazolo[3,4-d]pyrimidin-4-amine] | < 10
8 | COc1c(C(C)n2nc(C)c3c(N)ncnc32)cc(Cl)c(C)c1-c1ccc(NCCO)nc1 (single isomer, unassigned) [Example 184, 2-[(5-{3-[1-(4-Amino-3-methyl-1H-pyrazolo[3,4-d]pyrimidin-1-yl)ethyl]-5-chloro-2-methoxy-6-methylphenyl}pyridin-2-yl)amino]ethanol] | < 10
9 | Cc1c(Cl)cc(C(C)n2nc(C)c3c(N)ncnc32)c(OCC(F)F)c1-c1ccc(C(=O)N(C)C)nc1 (single isomer, unassigned) [Example 189, 5-(3-(1-(4-Amino-3-methyl-1H-pyrazolo[3,4-d]pyrimidin-1-yl)ethyl)-5-chloro-2-(2,2-difluoroethoxy)-6-methylphenyl)-N,N-dimethylpicolinamide bis(2,2,2-trifluoroacetate)] | < 10
10 | CCOc1c(C(C)n2nc(C)c3c(N)ncnc32)cc(Cl)c(C)c1-c1cnn(CC(N)=O)c1 (single isomer, unassigned) [Example 203, 2-(4-(3-(1-(4-Amino-3-methyl-1H-pyrazolo[3,4-d]pyrimidin-1-yl)ethyl)-5-chloro-2-ethoxy-6-methylphenyl)-1H-pyrazol-1-yl)acetamide] | < 10
11 | CCOc1c(C(C)n2nc(C)c3c(N)ncnc32)cc(Cl)c(C#N)c1C1CN(C)C1 (single isomer, unassigned) [Example 213, 4-[1-(4-Amino-3-methyl-1H-pyrazolo[3,4-d]pyrimidin-1-yl)ethyl]-6-chloro-3-ethoxy-2-(1-methylazetidin-3-yl)benzonitrile] | < 10
12 | CCOc1c(C(C)n2nc(C)c3c(N)ncnc32)cc(Cl)c(C#N)c1C1CN(C(C)(C)C(=O)OC(C)(C)C)C1 (single isomer, unassigned) [Example 236, tert-Butyl 2-(3-{3-[1-(4-amino-3-methyl-1H-pyrazolo[3,4-d]pyrimidin-1-yl)ethyl]-5-chloro-6-cyano-2-ethoxyphenyl}azetidin-1-yl)-2-methylpropanoate] | < 10
13 | CCOc1c(C(C)n2nc(C)c3c(N)ncnc32)cc(Cl)c(C#N)c1C1CN(C(C)(C)CO)C1 (single isomer, unassigned) [Example 237, 4-[1-(4-Amino-3-methyl-1H-pyrazolo[3,4-d]pyrimidin-1-yl)ethyl]-6-chloro-3-ethoxy-2-[1-(2-hydroxy-1,1-dimethylethyl)azetidin-3-yl]benzonitrile] | < 10
14 | CCOc1c(C(C)n2nc(C)c3c(N)ncnc32)cc(Cl)c(C#N)c1C1CN(C(C)(C)C(N)=O)C1 (single isomer, unassigned) [Example 239, 2-{3-(3-[1-(4-Amino-3-methyl-1H-pyrazolo[3,4-d]pyrimidin-1-yl)ethyl]-5-chloro-6-cyano-2-ethoxyphenyl}azetidin-1-yl)-2-methylpropan amide] | < 10

Continued, values first:

Row | IC50 [nM] | Structure (SMILES)
15 | < 10 | COc1c(C(C)n2nc(C)c3c(N)ncnc32)cc(Cl)c(C)c1-c1ccc(C(=O)N(C)C)c(F)c1 (single isomer, unassigned) [Example 21, 3′-[1-(4-Amino-3-methyl-1H-pyrazolo[3,4-d]pyrimidin-1-yl)ethyl]-5′-chloro-3-fluoro-2′-methoxy-N,N,6′-trimethylbiphenyl-4-carboxamide trifluoroacetate]
16 | < 10 | CNC(=O)c1ccc(-c2c(C)c(Cl)cc(C(C)n3nc(C)c4c(N)ncnc43)c2OC)cc1F (single isomer, unassigned) [Example 22, 3′-[1-(4-Amino-3-methyl-1H-pyrazolo[3,4-d]pyrimidin-1-yl)ethyl]-5′-chloro-3-fluoro-2′-methoxy-N,6′-dimethylbiphenyl-4-carboxamide trifluoroacetate]
17 | < 10 | COc1c(C(C)n2nc(C)c3c(N)ncnc32)cc(Cl)c(C)c1-c1cncc(C(=O)N(C)C)c1 (single isomer, unassigned) [Example 65, 5-{3-[1-(4-amino-3-methyl-1H-pyrazolo[3,4-d]pyrimidin-1-yl)ethyl]-5-chloro-2-methoxy-6-methylphenyl}-N,N-dimethylnicotinamide]
18 | < 10 | CCOc1c(C(C)n2nc(C)c3c(N)ncnc32)cc(Cl)c(C)c1C1CN(C(C)C)C1 (single isomer, unassigned) [Example 94, 1-{1-[5-Chloro-2-ethoxy-3-(1-isopropylazetidin-3-yl)-4-methylphenyl]ethyl}-3-methyl-1H-pyrazolo[3,4-d]pyrimidin-4-amine bis(trifluoroacetate)]
19 | < 10 | COc1c(C(C)n2nc(C)c3c(N)ncnc32)cc(Cl)c(C)c1C1CN(C[C@@H](O)C(F)(F)F)C1 (single isomer, unassigned) [Example 115]
20 | < 10 | COc1c(C(C)n2nc(C)c3c(N)ncnc32)cc(Cl)c(C)c1C1CN(C(=O)[C@H](C)O)C1 (single isomer, unassigned) [Example 118]
21 | < 10 | COc1c(C(C)n2nc(C)c3c(N)ncnc32)cc(Cl)c(C)c1-c1cnn(CCN(C)C)c1 (single isomer, unassigned) [Example 183, 1-[1-(5-Chloro-3-{1-[2-(dimethylamino)ethyl]-1H-pyrazol-4-yl}-2-methoxy-4-methylphenyl)ethyl]-3-methyl-1H-pyrazolo[3,4-d]pyrimidin-4-amine]
22 | < 10 | COc1c(C(C)n2nc(C)c3c(N)ncnc32)cc(Cl)c(C)c1-c1ccc(OCCO)nc1 (single isomer, unassigned) [Example 188, 2-(5-(3-(1-(4-Amino-3-methyl-1H-pyrazolo[3,4-d]pyrimidin-1-yl)ethyl)-5-chloro-2-methoxy-6-methylphenyl)pyridin-2-yloxy)ethanol]
23 | < 10 | CCOc1c(C(C)n2nc(C)c3c(N)ncnc32)cc(Cl)c(C#N)c1C1CNC1 (single isomer, unassigned) [Example 212, 4-[1-(4-Amino-3-methyl-1H-pyrazolo[3,4-d]pyrimidin-1-yl)ethyl]-2-azetidin-3-yl-6-chloro-3-ethoxybenzonitrile]
24 | < 10 | CCOc1c(C(C)n2nc(C)c3c(N)ncnc32)cc(Cl)c(C#N)c1C1CN(CCO)C1 (single isomer, unassigned) [Example 219, 4-[1-(4-Amino-3-methyl-1H-pyrazolo[3,4-d]pyrimidin-1-yl)ethyl]-6-chloro-3-ethoxy-2-[1-(2-hydroxyethyl)azetidin-3-yl]benzonitrile]
25 | < 10 | CCOc1c(C(C)n2nc(C)c3c(N)ncnc32)cc(Cl)c(C#N)c1C1CN(C(=O)C(C)(C)O)C1 (single isomer, unassigned) [Example 247, 4-[1-(4-Amino-3-methyl-1H-pyrazolo[3,4-d]pyrimidin-1-yl)ethyl]-6-chloro-3-ethoxy-2-[1-(2-hydroxy-2-methylpropanoyl)azetidin-3-yl]benzonitrile]
